In patent US11981677B2, “Further substituted triazolo quinoxaline derivatives” (Grünenthal GmbH, priority 2018, dated 2024):

Target: T1, Glucocorticoid Receptor (Homo sapiens, UniProt P04150)
T1 construct: expressed in transfected cells
T1 sequence (P04150 524-758 limits assumed): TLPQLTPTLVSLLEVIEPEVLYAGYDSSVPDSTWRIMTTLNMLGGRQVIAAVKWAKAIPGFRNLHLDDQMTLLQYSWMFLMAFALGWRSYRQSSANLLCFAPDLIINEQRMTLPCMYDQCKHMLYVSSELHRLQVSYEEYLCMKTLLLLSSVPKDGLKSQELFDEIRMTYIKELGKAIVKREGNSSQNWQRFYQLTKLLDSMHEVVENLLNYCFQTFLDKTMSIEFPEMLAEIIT
Assay: Agonistic mode of action on the glucocorticoid receptor (CHO-Gal4/GR luciferase reporter cell line)
Type: cell-based
Settings: CHO-Gal4/GR luciferase reporter cells; observed in the agonistic assay or the antagonistic assay (mode not given); read-out: IC50 or EC50 range
How it was run: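 CHO cells stably expressing GAL4 DBD–GR ligand-binding domain fusion with GAL4-UAS firefly luciferase reporter, seeded 24 h, then treated in Opti-MEM with 8 half-log concentrations from 10 μM to 0.003 μM (0.5% DMSO), quadruplicate. Luminescence read on FLIPR after lysis with Triton/luciferin; EC50 calculated.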

Row | SMILES | IC50 or EC50 (antagonist or agonist mode, not stated per compound)
1 | Cc1c(-c2cc(F)cc3c2cnn3S(C)(=O)=O)c(F)c(Cl)c2c1-n1c(C)nnc1C(C)(C)N2 [Example 510, 6-Chloro-7-fluoro-8-(6-fluoro-1-methylsulfonyl-1H-indazol-4-yl)-1,4,4,9-tetramethyl-5H-[1,2,4]triazolo[4,3-a]quinoxaline] | < 0.1 µM
2 | Cc1c(-c2cccc3c2cnn3S(C)(=O)=O)cc(Cl)c2c1-n1c(C)nnc1C(C)(C)N2 [Example 458, 6-Chloro-1,4,4,9-tetramethyl-8-(1-methylsulfonyl-1H-indazol-4-yl)-5H-[1,2,4]triazolo[4,3-a]quinoxaline] | 0.1 to 1 µM
3 | Cc1c(-c2cccc3[nH]ccc23)c(F)c(F)c2c1-n1c(C)nnc1C(C)(C)N2 [Example 512, 6,7-Difluoro-8-(1H-indol-4-yl)-1,4,4,9-tetramethyl-5H-[1,2,4]triazolo[4,3-a]quinoxaline] | < 0.1 µM
4 | Cc1c(-c2cc(C#N)cc3[nH]ccc23)cc(F)c2c1-n1c(C)nnc1C(C)(C)N2 [Example 477, 4-(6-Fluoro-1,4,4,9-tetramethyl-5H-[1,2,4]triazolo[4,3-a]quinoxalin-8-yl)-1H-indole-6-carbonitrile] | 0.1 to 1 µM
5 | Cc1c(-c2cccc3c2cnn3S(C)(=O)=O)cc(F)c2c1-n1c(C)nnc1C(C)(C)N2 [Example 378, 6-Fluoro-1,4,4,9-tetramethyl-8-(1-methylsulfonyl-1H-indazol-4-yl)-5H-[1,2,4]triazolo[4,3-a]quinoxaline] | 1 to 15 µM
6 | Cc1c(-c2cc(F)cc3c2ccn3S(C)(=O)=O)cc(F)c2c1-n1c(C3CC3)nnc1C(C)(C)N2 [Example 63, 1-Cyclopropyl-6-fluoro-8-(6-fluoro-1-methylsulfonyl-1H-indol-4-yl)-4,4,9-trimethyl-5H-[1,2,4]triazolo[4,3-a]quinoxaline] | 0.1 to 1 µM
7 | Cc1c(-c2cccc3[nH]ncc23)cc(F)c2c1-n1c(C)nnc1C(C)(C)N2 [Example 504, 6-Fluoro-8-(1H-indazol-4-yl)-1,4,4,9-tetramethyl-5H-[1,2,4]triazolo[4,3-a]quinoxaline] | 0.1 to 1 µM
8 | COc1c(-c2cc(F)cc3c2ccn3CCO)cc(F)c2c1-n1c(C3CC3)nnc1C(C)(C)N2 [Example 61, 2-[4-(1-Cyclopropyl-6-fluoro-9-methoxy-4,4-dimethyl-5H-[1,2,4]triazolo[4,3-a]quinoxalin-8-yl)-6-fluoro-1H-indol-1-yl]-EtOH] | 1 to 15 µM
9 | Cc1c(-c2cccc3c2ccn3S(=O)(=O)C(C)C)cc(F)c2c1-n1c(C)nnc1C(C)(C)N2 [Example 366, 6-Fluoro-8-[1-(isopropylsulfonyl)-1H-indol-4-yl]-1,4,4,9-tetramethyl-5H-[1,2,4]triazolo[4,3-a]quinoxaline] | 1 to 15 µM
10 | CCc1nnc2n1-c1c(C)c(-c3cc(F)cc4c(C)c[nH]c34)cc(F)c1NC2(C)C [Example 316, 1-Ethyl-6-fluoro-8-(5-fluoro-3-methyl-1H-indol-7-yl)-4,4,9-trimethyl-5H-[1,2,4]triazolo[4,3-a]quinoxaline] | 0.1 to 1 µM
11 | COc1c(-c2ccc(F)c3[nH]ncc23)cc(F)c2c1-n1c(C)nnc1C(C)(C)N2 [Example 489, 6-Fluoro-8-(7-fluoro-1H-indazol-4-yl)-9-methoxy-1,4,4-trimethyl-5H-[1,2,4]triazolo[4,3-a]quinoxaline] | 0.1 to 1 µM
12 | Cc1c(-c2cc(F)cc3c2cnn3S(C)(=O)=O)c(Cl)c(F)c2c1-n1c(C)nnc1C(C)(C)N2 [Example 525, 7-Chloro-6-fluoro-8-(6-fluoro-1-methylsulfonyl-1H-indazol-4-yl)-1,4,4,9-tetramethyl-5H-[1,2,4]triazolo[4,3-a]quinoxaline] | < 0.1 µM
13 | COc1c(-c2cccc3c2ccn3S(C)(=O)=O)cc(Cl)c2c1-n1c(C)nnc1C(C)(C)N2 [Example 482, 6-Chloro-9-methoxy-1,4,4-trimethyl-8-(1-methylsulfonyl-1H-indol-4-yl)-5H-[1,2,4]triazolo[4,3-a]quinoxaline] | 0.1 to 1 µM
14 | COc1c(-c2cc(F)cc3c2ccn3S(C)(=O)=O)c(F)c(F)c2c1-n1c(C)nnc1C(C)(C)N2 [Example 498, 6,7-Difluoro-8-(6-fluoro-1-methylsulfonyl-1H-indol-4-yl)-9-methoxy-1,4,4-trimethyl-5H-[1,2,4]triazolo[4,3-a]quinoxaline] | < 0.1 µM
15 | CNc1c(-c2cccc3c2ccn3C2CC2)cc(F)c2c1-n1c(C)nnc1C(C)(C)N2 [Example 481, 8-(1-cyclopropyl-1H-indol-4-yl)-6-fluoro-N,1,4,4-tetramethyl-4,5-dihydro-[1,2,4]triazolo[4,3-a]quinoxalin-9-amine] | 0.1 to 1 µM
16 | Cc1nnc2n1-c1c(c(F)c(F)c(-c3cc(F)cc4[nH]ccc34)c1C(F)(F)F)NC2(C)C [Example 516, 6,7-Difluoro-8-(6-fluoro-1H-indol-4-yl)-1,4,4-trimethyl-9-(trifluoromethyl)-5H-[1,2,4]triazolo[4,3-a]quinoxaline] | < 0.1 µM
17 | COc1c(-c2cc(C(F)(F)F)cc3[nH]ccc23)cc(F)c2c1-n1c(C)nnc1C(C)(C)N2 [Example 473, 6-Fluoro-9-methoxy-1,4,4-trimethyl-8-[6-(trifluoromethyl)-1H-indol-4-yl]-5H-[1,2,4]triazolo[4,3-a]quinoxaline] | 0.1 to 1 µM
18 | Cc1c(-c2cc(F)cc3c(C4CC4)c[nH]c23)cc(F)c2c1-n1c(C)nnc1C(C)(C)N2 [Example 38, 8-(3-cyclopropyl-5-fluoro-1H-indol-7-yl)-6-fluoro-1,4,4,9-tetramethyl-4,5-dihydro-1-[1,2,4]triazolo[4,3-a]quinoxaline] | < 0.1 µM
19 | CCc1c(-c2cc(F)cc3c2ccn3S(C)(=O)=O)cc(F)c2c1-n1c(C)nnc1C(C)(C)N2 [Example 48, 9-Ethyl-6-fluoro-8-(6-fluoro-1-methylsulfonyl-1H-indol-4-yl)-1,4,4-trimethyl-5H-[1,2,4]triazolo[4,3-a]quinoxaline] | < 0.1 µM
20 | COCCn1ccc2c(-c3cc(F)c4c(c3OC)-n3c(C)nnc3C(C)(C)N4)cc(F)cc21 [Example 54, 6-Fluoro-8-[6-fluoro-1-(2-methoxy-ethyl)-1H-indol-4-yl]-9-methoxy-1,4,4-trimethyl-5H-[1,2,4]triazolo[4,3-a]quinoxaline] | 0.1 to 1 µM
21 | Cc1c(-c2cccc3c2ccn3S(C)(=O)=O)c(F)c(F)c2c1-n1c(C)nnc1C(C)(C)N2 [Example 448, 6,7-difluoro-1,4,4,9-tetramethyl-8-(1-(methylsulfonyl)-1H-indol-4-yl)-4,5-dihydro-[1,2,4]triazolo[4,3-a]quinoxaline] | < 0.1 µM
22 | Cc1nnc2n1-c1c(c(F)cc(-c3cc(F)cc4c3cnn4S(C)(=O)=O)c1C1CC1)NC2(C)C [Example 467, 9-Cyclopropyl-6-fluoro-8-(6-fluoro-1-methylsulfonyl-1H-indazol-4-yl)-1,4,4-trimethyl-5H-[1,2,4]triazolo[4,3-a]quinoxaline] | 0.1 to 1 µM
23 | CCc1c(-c2cccc3c2ccn3S(C)(=O)=O)cc(F)c2c1-n1c(C)nnc1C(C)(C)N2 [Example 49, 9-ethyl-6-fluoro-1,4,4-trimethyl-8-(1-(methylsulfonyl)-1H-indol-4-yl)-4,5-dihydro-[1,2,4]triazolo[4,3-a]quinoxaline] | 0.1 to 1 µM
